Nc1nc2ccc(OC(F)(F)F)cc2s1
solubility (mole fraction)
Settings	278.15 K	283.15 K	288.15 K	293.15 K	298.15 K	303.15 K	308.15 K	313.15 K	318.15 K	323.15 K
in acetone	0.371	0.379	0.387	0.4	0.414	0.425	0.437	0.449	0.464	0.477
in ethanol	0.179	0.188	0.198	0.212	0.223	0.236	0.255	0.273	0.294	0.308
in n-propanol	0.179	0.189	0.202	0.215	0.23	0.249	0.267	0.287	0.312	0.333

Source: BigSolDB 2.1
